Measured values as given in patent US9833520B2, “Labeled, non-peptidic, multivalent integrin antagonist compounds; methods for synthesis and uses thereof” (The Methodist Hospital Research Institute, priority 2011, dated 2017).
“Also recorded” adds a separate entry of the source.

Key:
HUVECs [1] = assay: In vitro cytotoxicity (MTT) assay, HUVECs; assay type: cell-based, human; conditions: 1 μg/mL to 100 μg/mL, 24 hr
Method: (§1) For cell cytotoxicity assay, the cells were then seeded into 96-well flat-bottomed tissue-culture plates at 1×10^4 cells/well and incubated for 24 hr in humidified atmosphere of 5% (vol./vol.) CO2 at 37° C. in the presence of each compound. The multivalent compound (monomer, dimer, and trimer) sample solutions were diluted with culture medium (1% FBS added) to obtain concentrations in the range of 0.1-100 μg/mL for each compound. The cytotoxic effects of monomer, dimer and trimer compounds were evaluated by adding 100 μL of each sample in 100 μL culture medium to each well. After 24-hrs' incubation, cell viability was evaluated by mitochondrial conversion of 3-(4,5-dimethylthiazol-2-yl)-2,5-diphenyl tetrazolium bromide (MTT assay) (Allison et al., 1985).

HUVECs [2] = assay: Anti-angiogenic in vitro assay: endothelial tube formation on Matrigel; assay type: cell-based, human; conditions: 10 μg/mL, 6 hr
Method: The impact of IA derivatives on capillary-like tube formation by HUVECs was investigated. In vitro endothelial tube formation was performed as described in the literature (Park et al., 2007). Growth factor reduced Matrigel® (100 μL, BD Bioscience, San Jose, Calif., USA) was added to each well of a 96-well plate and allowed to polymerize for 30 min at 37° C. HUVECs were suspended in medium at the density of 4×10^5 cells per milliliter, and 100 μL of the cell suspension was added to each Matrigel-coated well in the presence of IA monomer, dimer and trimer. Cells were incubated at 37° C. for 6 hr, and then photographed at 20× magnification using a Micromaster® phase contrast microscope (Fisher Scientific, Pittsburgh, Pa., USA). The branch points were counted and averaged.

B16F10 cells = assay: In vitro cytotoxicity (MTT) assay, B16F10; assay type: cell-based, mouse; conditions: B16F10, 100 μg/mL, 24 hr
Method: as §1
Mouse melanoma B16F10 cells (Caliper.CO,) and human melanoma M21 cells were maintained in RPMI 1640 (Caliper) containing 10% (vol./vol.) fetal bovine serum (Invitrogen, Ontario, Canada), 100 U/mL penicillin G, and 100 μg/mL streptomycin for general cell growing condition. For cell cytotoxicity assay, the cells were then seeded into 96-well flat-bottomed tissue-culture plates at 1×10^4 cells/well and incubated for 24 hr or 72 hr in humidified atmosphere of 5% (vol./vol.) CO2 at 37° C. in the presence of each compound. The multivalent compounds (monomer, dimer, trimer) sample solutions were diluted with culture medium (1% FBS added) to obtain the concentration of each compound in the range of 0.1 to 100 μg/mL. The cytotoxic effects of monomer, dimer and trimer compounds solution were evaluated by adding a mixture of 100 μL of each sample and 100 μL of culture medium to each well. After 24-hr or 72-hr incubation, cell viability was evaluated by mitochondrial conversion of 3-(4,5-dimethylthiazol-2-yl)-2,5-diphenyl tetrazolium bromide (MTT assay).

U-87 xenograft tumors = assay: In vivo and ex vivo NIR fluorescence imaging of U-87 xenograft tumor-bearing mice; conditions: co-administered with 10 nmol bivalent-IA-Cy5.5; 2, 4, 7, 24, 48 hrs
Method: U-87 MG Xenograft Model, Animal procedures were performed according to approved protocols. Female athymic nude mice (nu/nu), obtained from Charles River Laboratories, Inc. (Cambridge, Mass., USA) at 4-6 weeks of age, were injected subcutaneously in the right rear thigh with 1×10^7 U-87 MG cells suspended in 100 μL of phosphate-buffered saline (PBS). The cancer cells were harvested from sub-confluent cultures with 0.25% trypsin. Trypsinization was stopped with DMEM containing 10% FBS, after which the cells were washed once in serum-free medium and resuspended in PBS. Trypan blue exclusion was performed to ensure >90% cell viability. The tumor bearing mice were subjected to in vivo imaging studies when the tumors reached 0.4-0.6 cm in diameter.
In vivo Fluorescence Imaging of Tumors. ˜3×10^6 U-87 cells were implanted bilaterally in the posterior flanks of immunocompromised (nu/nu) mice and grown to ˜4 to 6 mm in diameter. Imaging was carried out in groups of five mice. After palpable masses were detected, animals were manually restrained and imaging probes were intravenously administered (lateral tail vein) using a 30-Ga needle via aseptic technique. Free Cy5.5 was prepared by dissolving the same Cy5.5NHS ester used for labeling the bivalent IA (GE Healthcare, Piscatway, N.J., USA) in phosphate buffered saline (PBS), pH 7.4 overnight at 4° C. Stock concentration of free Cy5.5 was measured optically using the molar extinction coefficient of 250000M-1 cm-1 using a UV-visible spectrophotometer at the maximum absorbance wavelength (675 nm) as recommended by the manufacturer. The bivalent-IA-Cy5.5 was weighed and confirmed by spectrophotometric measurement. Appropriate dilutions of each probe were made in PBS, pH 7.4, and each was filter sterilized (0.2-μm) immediately prior to use. All animals weighed between 18 and 20 g, and each received 10 nmol of imaging probe (in a total volume of 100 μL). Fluorescence imaging was performed with a small animal-dedicated optical imaging system (Xenogen/Caliper IVIS-200, Mountain View, Calif., USA) under continuous 1.5-2.0% isoflurane delivered through the integrated anesthesia nosecone system. At 2-, 4-, 7-, 24-, and 48-hrs' post-injection, images were acquired with the surface of the tissue of interest (tumor) approximating a perpendicular viewing angle relative to the camera line of sight; this viewing angle was also used for normal tissue selection.
For determining tumor contrast, mean fluorescence intensities of the tumor area (T) defined as radiance (photons/sec/cm2/sr) at the right rear leg of the animal and of the area (N) at the right flank (normal tissue) were calculated by region-of-interest (ROI) analysis using the corresponding photograph of each image acquisition dataset to identify the tumor region. Pre-injection imaging was also performed to determine baseline autofluorescence. For competitive inhibition studies, mice (n=3) were co-injected with 500 nmol bivalent IA and 10 nmol of imaging probe (bivalent-IA-Cy5.5) following the same procedure described above. Free Cy5.5 studies were performed in the same manner following the intravenous injection of 10 nmol. For ex vivo biodistribution imaging, two tumor-bearing mice were imaged 24 hrs post injection of bivalent-IA-Cy5.5 and thereafter euthanized per IACUC protocol (CO2 and cervical dislocation). Tumor and major internal organs (heart, lung, liver, spleen, gastrointestinal tract, and kidneys) were harvested, weighed, and imaged against a black paper background. All image acquisition parameters were as follows: epi-illumination; Cy5.5 Em/Ex; Bin: (HR)4, FOV: 12.9; f2; 0.2 sec.

Compound	cytotoxicity on HUVEC cells (HUVECs [1])	number of tube branches (control group 100%) (HUVECs [2]) [%]	cell viability (B16F10 cells) [%]	cell viability (B16F10 cells; listed as IA-monomer)	cell viability (B16F10 cells; listed as IA-dimer)	competitive inhibition of bivalent-IA-Cy5.5 tumor fluorescence signal (U-87 xenograft tumors)
O=C(NCCS(=O)(=O)N[C@@H](CNC(=O)c1ccc(OCCNC2=NCCCN2)cc1)C(=O)O)OCCN(CCOC(=O)NCCS(=O)(=O)N[C@@H](CNC(=O)c1ccc(OCCNC2=NCCCN2)cc1)C(=O)O)CCOC(=O)NCCS(=O)(=O)N[C@@H](CNC(=O)c1ccc(OCCNC2=NCCCN2)cc1)C(=O)O [IA trimer]	increased cytotoxicity over the IA-monomer and dimer	35.6±1.0	~80	–	–	–
NCCS(=O)(=O)N[C@@H](CNC(=O)c1ccc(OCCNC2=NCCCN2)cc1)C(=O)O [IA, 4-[2-(3,4,5,6-tetrahydropyrimidine-2-ylamino)ethyloxy]benzoyl-2-(S)-aminoethylsulfonyl-amino-β-alanine]	–	86.6±3.4	–	smaller and less significant; also recorded: no significant changes of cell viability	–	–
NC(CCCCCC(=O)NCCS(=O)(=O)N[C@@H](CNC(=O)c1ccc(OCCNC2=NCCCN2)cc1)C(=O)O)C(=O)NCCS(=O)(=O)N[C@@H](CNC(=O)c1ccc(OCCNC2=NCCCN2)cc1)C(=O)O (some centres unmarked) [bivalent IA]	–	68.3±2.6	–	–	smaller and less significant; also recorded: no significant changes of cell viability	Significant blocking of tumor fluorescence signal; also recorded: reduced at all timepoints measured
